Numbers after ± are expanded uncertainties.
Conditions: 101 kPa, Liquid; for viscosity: Capillary tube (Ostwald / Ubbelohde) method; for mass density: Pycnometric method

CO [methanol]
Conditions	mass density [kg/m3]	viscosity [mPa·s]
293.15 K	791 ± 1	0.595 ± 0.025
298.15 K	786.4 ± 1	0.552 ± 0.023
303.15 K	781.8 ± 1	0.514 ± 0.021
308.15 K	777.2 ± 1	0.478 ± 0.02
313.15 K	771.8 ± 1	0.449 ± 0.019
323.15 K	762.3 ± 1	0.394 ± 0.016
333.15 K	752.4 ± 1	0.349 ± 0.015

Reference: the NIST ThermoML archive (doi:10.1007/s10765-011-0989-8)
